Assay results published in US7601852B2, “Macrocyclic kinase inhibitors” (Kosan Biosciences Incorporated, priority 2006, dated 2009).
Read-outs that look alike come from different tables or passages of the source.

What was measured:
[1] = tested on: COLO829 (B-Raf V600E) human melanoma cancer cell line; assay: Inhibitory concentration against COLO829 cancer cell line; format: cell-based
Description: (§1) The biological activity of compounds III and IV is compared against that of the natural product hypothemycin in Table A. Inhibitory concentrations against three cancer cell lines is provided. COLO829 B is a human melanoma cancer cell line having a B-Raf V600E mutation. HT29 is a human colon cancer cell line also having a B-Raf V600E mutation. SKOV3 is a human […] cancer cell line having wild-type B-Raf. Additionally, Ki and Kinact for ERK2 are provided.

[2] = tested on: HT29 (B-Raf V600E) human colon cancer cell line; assay: Inhibitory concentration against HT29 cancer cell line; format: cell-based
Description: as §1

[3] = tested on: SKOV3 (wild-type B-Raf) human breast cancer cell line; assay: Inhibitory concentration against SKOV3 cancer cell line; format: cell-based
Description: as §1

ERK2 = ERK2 (Homo sapiens, UniProt P28482); assay: ERK2 Binding; conditions: for kinact: read-out: ERK2 Binding Kinact
Description: as §1

panel of 124 kinases = conditions: cited from earlier work
[4] = COLO-829, COLO829 human melanoma cell line, B-Raf V600E, read-out: Inhibitory Concentration (IC50) COLO829 (B-Raf V600E)
[5] = HT-29, HT29 human colon cancer cell line, B-Raf V600E, read-out: Inhibitory Concentration (IC50) HT29 (B-Raf V600E)
[6] = SK-OV-3, SKOV3 cell line, wild-type B-Raf, read-out: Inhibitory Concentration (IC50) SKOV3 (wild-type B-Raf)

Chain of ERK2 (P28482 whole entry, species assumed): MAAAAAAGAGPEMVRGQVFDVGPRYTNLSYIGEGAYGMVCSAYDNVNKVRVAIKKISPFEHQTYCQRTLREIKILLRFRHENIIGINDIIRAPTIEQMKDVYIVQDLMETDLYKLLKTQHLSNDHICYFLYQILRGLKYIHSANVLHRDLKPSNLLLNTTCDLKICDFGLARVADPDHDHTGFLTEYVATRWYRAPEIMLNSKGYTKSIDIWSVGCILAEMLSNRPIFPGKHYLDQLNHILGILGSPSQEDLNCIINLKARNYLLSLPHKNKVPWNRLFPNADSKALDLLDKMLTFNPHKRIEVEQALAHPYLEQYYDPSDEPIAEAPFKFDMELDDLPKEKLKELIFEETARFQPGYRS

Compound	IC50 [1, 4] [nM]	IC50 [2, 5] [nM]	IC50 [3, 6] [nM]	Ki (ERK2; read-out: ERK2 Binding Ki) [nM]	kinact (ERK2) [s⁻¹]	IC50 ([1]; Homo sapiens, COLO-829, read-out: Inhibitory Concentration (IC50) COLO829 (B-Raf V600E)) [nM]	IC50 ([2]; Homo sapiens, HT-29, read-out: Inhibitory Concentration (IC50) HT29 (B-Raf V600E)) [nM]	IC50 ([3]; SK-OV-3, read-out: Inhibitory Concentration (IC50) SKOV3 (wild-type B-Raf)) [nM]	Ki (ERK2) [nM]	number of kinases without active site cysteine inhibited (panel of 124 kinases; of 105 kinases not having the active site cysteine)	number of active site cysteine kinases inhibited (panel of 124 kinases; of the 19 kinases having the active site cysteine)	number of kinases inhibited (panel of 124 kinases; of the whole panel of 124 kinases)
C[C@H]1C/C=C\C(=O)[C@@H](O)[C@@H](O)COCc2cc(O)cc(O)c2C(=O)O1 [Compound III]	360	860	74000	3100 ± 400	9.1e-05	–	–	–	–	–	–	–
COc1cc(O)c2c(c1)[C@H]1O[C@@H]1C[C@H](O)[C@H](O)C(=O)/C=C\C[C@H](C)OC2=O [Hypothemycin, hypothemycin]	–	–	–	–	0.005 ± 2e-06	46	260	4000	2700 ± 800	2	18	20
C[C@@H]1/C=C\C(=O)[C@@H](O)[C@@H](O)COCc2cc(O)cc(O)c2C(=O)O[C@H]1C [IV]	310	1420	> 100000	–	–	–	–	–	–	–	–	–
